Measurements as given in patent US7138361B2, “Herbicidal heterocycles” (E. I. du Pont de Nemours and Company, priority 2000, dated 2006).

Experiments:
Format in all cases: in vivo
[1] = tested on: Surinam grass (Brachiaria decumbens); test: Test B postemergence; settings: 13 to 15 days
How it was run: (§1)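 Pre: seeded pots sprayed, chemical in non-phytotoxic solvent/surfactant mix. Post: plants 2–18 cm, 1–4 leaf, same formulation. Greenhouse 13–15 d; visual % control vs untreated, 0–100 scale.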

[2] = tested on: barnyardgrass (Echinochloa crus-galli); test: Test B postemergence; settings: 13 to 15 days
How it was run: as §1

[3] = tested on: blackgrass (Alopecurus myosuroides); test: Test B postemergence; settings: 13 to 15 days
How it was run: as §1

corn (Zea mays) [4] = test: Test B postemergence; settings: 13 to 15 days
How it was run: as §1

[5] = tested on: giant foxtail (Setaria faberii); test: Test B postemergence; settings: 13 to 15 days
How it was run: as §1

[6] = tested on: morning glory (Ipomoea hederacea); test: Test B postemergence; settings: Rate 500 g/ha, scale 0 to 100, 0 is no effect, 100 is complete control, 13 to 15 days
How it was run: as §1

[7] = tested on: pigweed (Amaranthus retroflexus); test: Test B postemergence; settings: Rate 500 g/ha, scale 0 to 100, 0 is no effect, 100 is complete control, 13 to 15 days
How it was run: as §1

[8] = tested on: velvetleaf (Abutilon theophrasti); test: Test B postemergence; settings: Rate 500 g/ha, scale 0 to 100, 0 is no effect, 100 is complete control, 13 to 15 days
How it was run: as §1

[9] = tested on: wheat (Triticum aestivum); test: Test B postemergence; settings: Rate 500 g/ha, scale 0 to 100, 0 is no effect, 100 is complete control, 13 to 15 days
How it was run: as §1

[10] = tested on: Surinam grass (Brachiaria decumbens); test: Test B preemergence
How it was run: as §1

[11] = tested on: barnyardgrass (Echinochloa crus-galli); test: Test B preemergence
How it was run: as §1

[12] = tested on: cocklebur (Xanthium strumarium); test: Test B preemergence
How it was run: as §1

corn (Zea mays) [13] = test: Test B preemergence
How it was run: as §1

[14] = tested on: crabgrass (Digitaria sanguinalis); test: Test B preemergence
How it was run: as §1

[15] = tested on: giant foxtail (Setaria faberii); test: Test B preemergence
How it was run: as §1

[16] = tested on: lambsquarters (Chenopodium album); test: Test B preemergence
How it was run: as §1

[17] = tested on: morning glory (Ipomoea hederacea); test: Test B preemergence
How it was run: as §1

[18] = tested on: pigweed (Amaranthus retroflexus); test: Test B preemergence
How it was run: as §1

rice (Oryza saliva) [19] = test: Test B preemergence
How it was run: as §1

[20] = tested on: velvetleaf (Abutilon theophrasti); test: Test B preemergence
How it was run: as §1

[21] = tested on: barnyardgrass (Echinochloa crus-galli); test: Test C flooded paddy test; settings: for Barnyardgrass plant response rating: Flooded Paddy, scale 0 to 100, 0 no effect, 100 complete control; for Plant response rating, Barnyardgrass: flooded paddy test, scale 0 to 100 (0 no effect, 100 complete control)
How it was run: (§2)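 Response on a 0-to-100 scale (no effect to complete control) was assessed by eye versus controls. Plants had reached 2 leaves when treated in flooded paddy conditions. The assessment took place after 12–14 days of greenhouse growth.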

[22] = tested on: duck salad (Heteranthera limosa); test: Test C flooded paddy test; settings: for Ducksalad plant response rating: Flooded Paddy, scale 0 to 100, 0 no effect, 100 complete control; for Plant response rating, Ducksalad: flooded paddy test, scale 0 to 100 (0 no effect, 100 complete control)
How it was run: as §2

rice (Oryza saliva) [23] = test: Test C flooded paddy test; settings: for Rice plant response rating: Flooded Paddy, scale 0 to 100, 0 no effect, 100 complete control; for Plant response rating, Rice: flooded paddy test, scale 0 to 100 (0 no effect, 100 complete control)
How it was run: as §2

[24] = tested on: smallflower flatsedge (Cyperus difformis); test: Test C flooded paddy test; settings: for Flatsedge plant response rating: Flooded Paddy, scale 0 to 100, 0 no effect, 100 complete control; for Plant response rating, Flatsedge: flooded paddy test, scale 0 to 100 (0 no effect, 100 complete control)
How it was run: as §2

Sunflower = test: Test C preemergence; settings: Rate 250 g/ha, scale 0 to 100, 0 no effect, 100 complete control
[25] = Rate 125 g/ha, scale 0 (no effect) to 100 (complete control)
[26] = Rate 500 g/ha, scale 0 to 100, 0 is no effect, 100 is complete control
[27] = Preemergence, Rate 500 g/ha, scale 0 to 100, 0 no effect, 100 complete control
[28] = preemergence, Rate 125 g/ha, scale of 0 to 100 where 0 is no effect and 100 is complete control, 13 to 15 days

In the case of CCOc1cc(N2CCC(n3ccc(C(C)(C)C)n3)C2=O)ccc1C (stereo not drawn) [Compound 106], the “Plant response rating, Surinam grass” value [1, 25] is reported as 0, the “Plant response rating, Surinam grass” value [1, 26] is reported as 0 and the “Plant response rating, Barnyardgrass” value [2, 25] is reported as 0. The “Plant response rating, Barnyardgrass” value [2, 26] was 0, the “Plant response rating, Blackgrass” value [3, 25] was 0 and the “Plant response rating, Blackgrass” value [3, 26] was 0. The “Plant response rating, Corn” value (corn (Zea mays) [4]; [25]) was 0, the “Plant response rating, Corn” value (corn (Zea mays) [4]; [26]) was 0 and the “Plant response rating, Foxtail, Giant” value [5, 25] was 0. The “Plant response rating, Foxtail, Giant” value [5, 26] was 0, the “Plant response rating, Morningglory” value [6] was 100 and the “Plant response rating, Pigweed” value [7] was 90. For the same molecule, the “Plant response rating, Velvetleaf” value [8] was 80, the “Plant response rating, Wheat” value [9] was 0 and the “Plant response rating, Surinam grass” value [10, 27] was 100. The “Plant response rating, Surinam grass” value [10, 28] was 100, the “Plant response rating, Barnyardgrass” value [11, 27] was 100 and the “Plant response rating, Barnyardgrass” value [11, 28] was 90. For the same molecule, the “Plant response rating, Cocklebur” value [12, 27] was 100, the “Plant response rating, Cocklebur” value [12, 28] was 30 and the “Plant response rating, Corn” value (corn (Zea mays) [13]; [27]) was 30. For the same molecule, the “Plant response rating, Corn” value (corn (Zea mays) [13]; [28]) was 30, the “Plant response rating, Crabgrass” value [14, 27] was 100 and the “Plant response rating, Crabgrass” value [14, 28] was 100. The “Plant response rating, Foxtail, Giant” value [15, 27] was 60, the “Plant response rating, Foxtail, Giant” value [15, 28] was 40 and the “Plant response rating, Lambsquarters” value [16, 27] was 100. The “Plant response rating, Lambsquarters” value [16, 28] was 100, the “Plant response rating, Morningglory” value [17, 27] was 100 and the “Plant response rating, Morningglory” value [17, 28] was 100. The “Plant response rating, Pigweed” value [18, 27] was 100, the “Plant response rating, Pigweed” value [18, 28] was 100 and the “Plant response rating, Rice” value (rice (Oryza saliva) [19]; [27]) was 100. For the same molecule, the “Plant response rating, Rice” value (rice (Oryza saliva) [19]; [28]) was 0, the “Plant response rating, Velvetleaf” value [20, 27] was 100 and the “Plant response rating, Velvetleaf” value [20, 28] was 0. For the same molecule, the “Barnyardgrass plant response rating” value ([21]; Rate 250 g/ha) was 90, the “Barnyardgrass plant response rating” value ([21]; Rate 500 g/ha) was 100 and the “Plant response rating, Barnyardgrass” value ([21]; Rate 62 g/ha) was 30. The “Plant response rating, Barnyardgrass” value ([21]; Rate 125 g/ha) was 50, the “Ducksalad plant response rating” value ([22]; Rate 250 g/ha) was 100 and the “Ducksalad plant response rating” value ([22]; Rate 500 g/ha) was 100. For the same molecule, the “Plant response rating, Ducksalad” value ([22]; Rate 62 g/ha) was 0, the “Plant response rating, Ducksalad” value ([22]; Rate 125 g/ha) was 0 and the “Rice plant response rating” value (rice (Oryza saliva) [23]; Rate 250 g/ha) was 60. For the same molecule, the “Rice plant response rating” value (rice (Oryza saliva) [23]; Rate 500 g/ha) was 90, the “Plant response rating, Rice” value (rice (Oryza saliva) [23]; Rate 62 g/ha) was 20 and the “Plant response rating, Rice” value (rice (Oryza saliva) [23]; Rate 125 g/ha) was 60. For the same molecule, the “Flatsedge plant response rating” value ([24]; Rate 250 g/ha) was 100, the “Flatsedge plant response rating” value ([24]; Rate 500 g/ha) was 100 and the “Plant response rating, Flatsedge” value ([24]; Rate 62 g/ha) was 80. For the same molecule, the “Plant response rating, Flatsedge” value ([24]; Rate 125 g/ha) was 90 and the “Plant response rating, Sunflower” value (Sunflower) was 90.

CCCC(C)c1ccn(C2SCN(c3cccc(OC(F)(F)F)c3)C2=O)n1 (stereo not drawn) [Compound 90] was tested, and the “Plant response rating, Surinam grass” value [1, 25] was 0, the “Plant response rating, Surinam grass” value [1, 26] was 30 and the “Plant response rating, Barnyardgrass” value [2, 25] was 20. The “Plant response rating, Barnyardgrass” value [2, 26] was 80, the “Plant response rating, Blackgrass” value [3, 25] was 0 and the “Plant response rating, Blackgrass” value [3, 26] was 0. The “Plant response rating, Corn” value (corn (Zea mays) [4]; [25]) was 0, the “Plant response rating, Corn” value (corn (Zea mays) [4]; [26]) was 10 and the “Plant response rating, Foxtail, Giant” value [5, 25] was 0. For the same molecule, the “Plant response rating, Foxtail, Giant” value [5, 26] was 40, the “Plant response rating, Morningglory” value [6] was 70 and the “Plant response rating, Pigweed” value [7] was 90. For the same molecule, the “Plant response rating, Velvetleaf” value [8] was 40, the “Plant response rating, Wheat” value [9] was 0 and the “Plant response rating, Surinam grass” value [10, 27] was 80. The “Plant response rating, Surinam grass” value [10, 28] was 20, the “Plant response rating, Barnyardgrass” value [11, 27] was 100 and the “Plant response rating, Barnyardgrass” value [11, 28] was 50. The “Plant response rating, Cocklebur” value [12, 27] was 0, the “Plant response rating, Cocklebur” value [12, 28] was 0 and the “Plant response rating, Corn” value (corn (Zea mays) [13]; [27]) was 20. The “Plant response rating, Corn” value (corn (Zea mays) [13]; [28]) was 0, the “Plant response rating, Crabgrass” value [14, 27] was 100 and the “Plant response rating, Crabgrass” value [14, 28] was 90. The “Plant response rating, Foxtail, Giant” value [15, 27] was 100, the “Plant response rating, Foxtail, Giant” value [15, 28] was 80 and the “Plant response rating, Lambsquarters” value [16, 27] was 100. For the same molecule, the “Plant response rating, Lambsquarters” value [16, 28] was 100, the “Plant response rating, Morningglory” value [17, 27] was 0 and the “Plant response rating, Morningglory” value [17, 28] was 0. For the same molecule, the “Plant response rating, Pigweed” value [18, 27] was 100, the “Plant response rating, Pigweed” value [18, 28] was 80 and the “Plant response rating, Rice” value (rice (Oryza saliva) [19]; [27]) was 0. The “Plant response rating, Rice” value (rice (Oryza saliva) [19]; [28]) was 0, the “Plant response rating, Velvetleaf” value [20, 27] was 0 and the “Plant response rating, Velvetleaf” value [20, 28] was 0. The “Barnyardgrass plant response rating” value ([21]; Rate 250 g/ha) was 90, the “Barnyardgrass plant response rating” value ([21]; Rate 500 g/ha) was 100 and the “Plant response rating, Barnyardgrass” value ([21]; Rate 62 g/ha) was 30. For the same molecule, the “Plant response rating, Barnyardgrass” value ([21]; Rate 125 g/ha) was 60, the “Ducksalad plant response rating” value ([22]; Rate 250 g/ha) was 90 and the “Ducksalad plant response rating” value ([22]; Rate 500 g/ha) was 90. The “Plant response rating, Ducksalad” value ([22]; Rate 62 g/ha) was 80, the “Rice plant response rating” value (rice (Oryza saliva) [23]; Rate 250 g/ha) was 0 and the “Rice plant response rating” value (rice (Oryza saliva) [23]; Rate 500 g/ha) was 20. For the same molecule, the “Plant response rating, Rice” value (rice (Oryza saliva) [23]; Rate 62 g/ha) was 0, the “Plant response rating, Rice” value (rice (Oryza saliva) [23]; Rate 125 g/ha) was 0 and the “Flatsedge plant response rating” value ([24]; Rate 250 g/ha) was 100. The “Flatsedge plant response rating” value ([24]; Rate 500 g/ha) was 100, the “Plant response rating, Flatsedge” value ([24]; Rate 62 g/ha) was 100 and the “Plant response rating, Flatsedge” value ([24]; Rate 125 g/ha) was 100. For the same molecule, the “Plant response rating, Sunflower” value (Sunflower) was 10.
